Reference: patent publication US7235572B2, “Thiazolyl-indole derivatives, their manufacture and use as pharmaceutical agents” (Hoffman-La Roche Inc., priority 2003, dated 2007)

Assays:
[1] = target: T1, PPARγ (Mus musculus, UniProt P37238); assay: PPARγ radioligand binding assay (scintillation proximity, GST-PPARγ-LBD); conditions: SPA radioligand binding
T1 construct: PPARγ (aa 174 to 476); made in house; host or cells: E. coli BL21 (pLysS)
T1 sequence (P37238 204-505): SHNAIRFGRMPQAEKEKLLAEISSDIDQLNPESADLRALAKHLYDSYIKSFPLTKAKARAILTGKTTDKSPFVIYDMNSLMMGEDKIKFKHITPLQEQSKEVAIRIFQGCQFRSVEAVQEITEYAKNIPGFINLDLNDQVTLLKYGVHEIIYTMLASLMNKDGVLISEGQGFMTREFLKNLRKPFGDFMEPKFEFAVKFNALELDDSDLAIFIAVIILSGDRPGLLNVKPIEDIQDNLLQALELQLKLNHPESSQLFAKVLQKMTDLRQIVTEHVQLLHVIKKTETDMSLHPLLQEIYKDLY
From the text: (§1) Background information on the performed assays can be found in: Nichols J S et al. “Development of a scintillation proximity assay for peroxisome proliferator-activated receptor gamma ligand binding domain”, (1998) Anal. Biochem. 257: 112–119.
(§2) Full-length cDNA clones for humans PPARδ and PPARα and mouse PPARγ were obtained by RT-PCR from human adipose and mouse liver cRNA, respectively, cloned into plasmid vectors and verified by DNA sequencing. Bacterial and mammalian expression vectors were constructed to produce glutathione-s-transferase (GST) and Gal4 DNA binding domain proteins fused to the ligand binding domains (LBD) of PPARδ (aa 139 to 442), PPARγ (aa 174 to 476) and PPARα (aa 167 to 469). To accomplish this, the portions of the cloned sequences encoding the LBDs were amplified from the full-length clones by PCR and then subcloned into the plasmid vectors. Final clones were verified by DNA sequence analysis. […]
(§3) PPARγ receptor binding was assayed in TKE50 (50 mM Tris-HCl, pH 8, 50 mM KCl, 2 mM EDTA, 0.1 mg/ml fatty acid-free BSA and 10 mM DTT). […] All binding assays were performed in 96 well plates and the amount of bound ligand measured on a Packard TopCount using OptiPlates (Packard). Nonspecific binding was determined in the presence of 10^−4 M unlabelled compound. […]

[2] = target: T2, PPARδ (Homo sapiens, UniProt Q03181); assay: PPARδ radioligand binding assay (scintillation proximity, GST-PPARδ-LBD); conditions: SPA radioligand binding
T2 construct: PPARδ (aa 139 to 442); made in house; host or cells: E. coli BL21 (pLysS)
T2 sequence (Q03181 139-441 limits assumed): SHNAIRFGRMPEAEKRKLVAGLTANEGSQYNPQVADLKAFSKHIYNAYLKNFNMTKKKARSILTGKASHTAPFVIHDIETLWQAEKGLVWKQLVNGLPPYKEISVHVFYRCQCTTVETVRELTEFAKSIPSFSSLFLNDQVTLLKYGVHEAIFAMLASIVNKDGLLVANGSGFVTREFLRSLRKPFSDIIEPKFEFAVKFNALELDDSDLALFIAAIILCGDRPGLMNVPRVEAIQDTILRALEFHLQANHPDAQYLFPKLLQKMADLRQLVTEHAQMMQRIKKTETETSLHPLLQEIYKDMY
From the text: as §1, §2
PPARδ receptor binding was assayed in HNM10 (50 mM Hepes, pH 7.4, 10 mM NaCl, 5 mM MgCl2, 0.15 mg/ml fatty acid-free BSA and 15 mM DTT). […] Radioligand was added and the reaction incubated at RT for 1 h and scintillation proximity counting performed in the presence of test compounds was determined. All binding assays were performed in 96 well plates and the amount of bound ligand was measured on a Packard TopCount using OptiPlates (Packard). […]

[3] = target: T3, PPARα (Homo sapiens, UniProt Q07869); assay: PPARα radioligand binding assay (scintillation proximity, GST-PPARα-LBD); conditions: SPA radioligand binding
T3 construct: PPARα (aa 167 to 469); made in house; host or cells: E. coli BL21 (pLysS)
T3 sequence (Q07869 167-468 limits assumed): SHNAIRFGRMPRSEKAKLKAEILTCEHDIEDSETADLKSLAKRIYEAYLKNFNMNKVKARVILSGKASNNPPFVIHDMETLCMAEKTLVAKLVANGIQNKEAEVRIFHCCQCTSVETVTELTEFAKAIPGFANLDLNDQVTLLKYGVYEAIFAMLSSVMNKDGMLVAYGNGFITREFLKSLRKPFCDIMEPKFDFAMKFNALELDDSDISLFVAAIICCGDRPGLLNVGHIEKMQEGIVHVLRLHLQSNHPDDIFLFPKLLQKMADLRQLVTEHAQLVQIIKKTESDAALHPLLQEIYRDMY
From the text: as §1, §2
as §3, with “PPARα” for “PPARγ”

Row | IC50 [1] | IC50 [2] | IC50 [3] | melting point | Structure (SMILES)
1 | ≥ 10 µM | 24 nM | 2230 nM | – | Cc1nc(-c2ccc(C(F)(F)F)cc2)sc1C(C)Oc1ccc2ccn(CC(=O)O)c2c1 (racemic) [Example 2, [rac]-(6-{1-[4-methyl-2-(4-trifluoromethyl-phenyl)-thiazol-5-yl]-ethoxy}-indol-1-yl)-acetic acid]
2 | ≥ 10 µM | 42 nM | 227 nM | – | Cc1nc(-c2ccc(C(F)(F)F)cc2)sc1CCCOc1cccc2c1ccn2CC(=O)O [Example 8, (4-{3-[4-methyl-2-(4-trifluoromethyl-phenyl)-thiazol-5-yl]-propoxy}-indol-1-yl)-acetic acid]
3 | – | – | – | 187 to 188 °C (dec.) | Cc1nc(-c2ccc(C(F)(F)F)cc2)sc1COc1ccc2c(c1)cc(C)n2CC(=O)O [Example 32, {2-methyl-5-[4-methyl-2-(4-trifluoromethyl-phenyl)-thiazol-5-ylmethoxy]-indol-1-yl}-acetic acid]
